Activity calls are given as the source filed them. The rule behind the calls is not given here.
Assays:
[1] = target: Serine/threonine-protein kinase 10 (Homo sapiens) (UniProt O94804); test: Inhibition of LOK Lys2 labeling site in human A-375 cells at 5 uM by KiNativ Profiling analysis relative to control; assay type: cell-based
[2] = target: Tyrosine-protein kinase JAK1 (Homo sapiens) (UniProt P23458); test: Inhibition of JAK1 JH1catalytic domain (unknown origin) at 1 uM by Ambit Kinomescan binding assay relative to control
[3] = target: T1, Interleukin-1 receptor-associated kinase 4 (Homo sapiens) (UniProt Q9NWZ3); test: Inhibition of IRAK4 (unknown origin) at 1 uM by Ambit Kinomescan binding assay relative to control
T1 sequence (whole entry): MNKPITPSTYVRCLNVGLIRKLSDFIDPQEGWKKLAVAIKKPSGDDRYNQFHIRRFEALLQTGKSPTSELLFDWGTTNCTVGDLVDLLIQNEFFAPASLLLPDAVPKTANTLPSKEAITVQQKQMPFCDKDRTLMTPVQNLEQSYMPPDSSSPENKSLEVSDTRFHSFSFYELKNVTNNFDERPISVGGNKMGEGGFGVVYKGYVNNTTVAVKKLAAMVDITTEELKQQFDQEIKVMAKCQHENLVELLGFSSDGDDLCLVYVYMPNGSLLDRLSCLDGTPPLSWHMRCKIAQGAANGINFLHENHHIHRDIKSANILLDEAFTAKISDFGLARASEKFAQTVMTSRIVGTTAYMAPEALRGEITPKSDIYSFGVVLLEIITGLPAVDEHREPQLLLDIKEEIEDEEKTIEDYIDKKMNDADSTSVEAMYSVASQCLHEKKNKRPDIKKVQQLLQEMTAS

[4] = target: 5'-AMP-activated protein kinase catalytic subunit alpha-2 (Homo sapiens) (UniProt P54646); test: Inhibition of AMPK-alpha2 (unknown origin) at 10 uM by Ambit Kinomescan binding assay
[5] = target: T2, Serine/threonine-protein kinase Nek1 (Homo sapiens) (UniProt Q96PY6); test: Inhibition of NEK1 (unknown origin) at 10 uM by Ambit Kinomescan binding assay
T2 sequence (whole entry): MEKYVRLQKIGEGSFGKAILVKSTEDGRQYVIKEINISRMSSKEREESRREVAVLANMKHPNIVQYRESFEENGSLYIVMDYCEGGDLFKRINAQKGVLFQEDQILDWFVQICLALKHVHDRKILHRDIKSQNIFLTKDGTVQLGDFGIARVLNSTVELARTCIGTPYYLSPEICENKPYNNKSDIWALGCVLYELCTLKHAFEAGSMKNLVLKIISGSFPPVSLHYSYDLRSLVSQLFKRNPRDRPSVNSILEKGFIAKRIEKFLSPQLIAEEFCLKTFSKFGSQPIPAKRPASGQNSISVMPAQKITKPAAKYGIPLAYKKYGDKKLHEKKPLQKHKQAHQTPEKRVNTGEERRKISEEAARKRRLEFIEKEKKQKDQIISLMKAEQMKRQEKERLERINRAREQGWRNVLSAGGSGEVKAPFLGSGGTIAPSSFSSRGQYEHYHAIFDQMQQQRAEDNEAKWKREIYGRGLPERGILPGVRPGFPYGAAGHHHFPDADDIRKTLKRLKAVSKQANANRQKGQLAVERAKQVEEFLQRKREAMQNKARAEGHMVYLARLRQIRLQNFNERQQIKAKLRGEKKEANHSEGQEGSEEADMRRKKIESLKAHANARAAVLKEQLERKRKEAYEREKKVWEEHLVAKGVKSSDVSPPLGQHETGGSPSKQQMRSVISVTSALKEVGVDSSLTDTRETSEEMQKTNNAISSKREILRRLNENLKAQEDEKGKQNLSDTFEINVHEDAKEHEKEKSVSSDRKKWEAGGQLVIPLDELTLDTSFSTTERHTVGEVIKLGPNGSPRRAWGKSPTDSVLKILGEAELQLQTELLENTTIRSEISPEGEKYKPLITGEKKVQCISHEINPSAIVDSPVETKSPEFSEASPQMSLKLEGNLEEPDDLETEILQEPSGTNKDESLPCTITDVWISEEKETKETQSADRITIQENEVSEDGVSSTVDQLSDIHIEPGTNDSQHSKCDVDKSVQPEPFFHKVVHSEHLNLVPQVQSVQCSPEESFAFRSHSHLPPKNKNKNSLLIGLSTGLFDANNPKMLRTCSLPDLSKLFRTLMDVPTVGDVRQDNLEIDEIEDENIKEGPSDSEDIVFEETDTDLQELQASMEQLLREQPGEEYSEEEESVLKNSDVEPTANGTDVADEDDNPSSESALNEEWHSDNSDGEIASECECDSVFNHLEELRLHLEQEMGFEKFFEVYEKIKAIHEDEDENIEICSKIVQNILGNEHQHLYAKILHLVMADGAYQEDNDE

[6] = target: T3, Dual specificity mitogen-activated protein kinase kinase 4 (Homo sapiens) (UniProt P45985); test: Inhibition of MEK4 (unknown origin) at 10 uM by Ambit Kinomescan binding assay
T3 sequence (whole entry): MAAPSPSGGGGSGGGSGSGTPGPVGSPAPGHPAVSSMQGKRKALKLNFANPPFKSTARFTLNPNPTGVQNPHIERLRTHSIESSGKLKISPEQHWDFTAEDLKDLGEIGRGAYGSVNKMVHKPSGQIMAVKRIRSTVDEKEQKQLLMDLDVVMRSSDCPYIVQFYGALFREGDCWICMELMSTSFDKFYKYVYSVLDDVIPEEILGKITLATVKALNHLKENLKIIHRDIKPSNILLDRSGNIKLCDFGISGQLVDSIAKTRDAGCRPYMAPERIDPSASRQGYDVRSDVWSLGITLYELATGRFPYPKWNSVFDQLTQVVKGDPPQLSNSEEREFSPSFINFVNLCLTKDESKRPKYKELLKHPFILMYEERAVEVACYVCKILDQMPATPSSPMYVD

[7] = target: Epidermal growth factor receptor (Homo sapiens) (UniProt P00533); test: Inhibition of EGFR Lys1 labeling site harbouring GLWIPEGEKVKIPVAIKELR in human Huh-7 cells at 1 uM by KiNativ Profiling analysis relative to control; assay type: cell-based
[8] = target: Casein kinase I isoform epsilon (Homo sapiens) (UniProt P49674); test: Inhibition of CK1epsilon Lys2 labeling site in human Huh-7 cell lysate at 1 uM by KiNativ Profiling analysis relative to control; assay type: subcellular
Chain of Casein kinase I isoform epsilon (Homo sapiens) (P49674 whole entry, looked up, canonical isoform): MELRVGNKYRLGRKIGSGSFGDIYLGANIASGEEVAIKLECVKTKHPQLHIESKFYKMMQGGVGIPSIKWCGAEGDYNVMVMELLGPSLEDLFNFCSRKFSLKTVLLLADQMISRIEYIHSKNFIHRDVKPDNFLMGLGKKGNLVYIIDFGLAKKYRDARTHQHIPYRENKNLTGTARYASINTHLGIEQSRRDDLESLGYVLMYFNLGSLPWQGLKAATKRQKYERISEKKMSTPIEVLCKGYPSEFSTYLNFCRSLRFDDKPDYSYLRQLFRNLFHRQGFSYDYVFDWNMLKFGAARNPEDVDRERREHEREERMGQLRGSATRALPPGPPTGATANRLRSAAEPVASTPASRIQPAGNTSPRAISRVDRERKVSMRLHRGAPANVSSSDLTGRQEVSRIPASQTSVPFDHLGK

Chain of Epidermal growth factor receptor (Homo sapiens) (P00533 whole entry, canonical isoform): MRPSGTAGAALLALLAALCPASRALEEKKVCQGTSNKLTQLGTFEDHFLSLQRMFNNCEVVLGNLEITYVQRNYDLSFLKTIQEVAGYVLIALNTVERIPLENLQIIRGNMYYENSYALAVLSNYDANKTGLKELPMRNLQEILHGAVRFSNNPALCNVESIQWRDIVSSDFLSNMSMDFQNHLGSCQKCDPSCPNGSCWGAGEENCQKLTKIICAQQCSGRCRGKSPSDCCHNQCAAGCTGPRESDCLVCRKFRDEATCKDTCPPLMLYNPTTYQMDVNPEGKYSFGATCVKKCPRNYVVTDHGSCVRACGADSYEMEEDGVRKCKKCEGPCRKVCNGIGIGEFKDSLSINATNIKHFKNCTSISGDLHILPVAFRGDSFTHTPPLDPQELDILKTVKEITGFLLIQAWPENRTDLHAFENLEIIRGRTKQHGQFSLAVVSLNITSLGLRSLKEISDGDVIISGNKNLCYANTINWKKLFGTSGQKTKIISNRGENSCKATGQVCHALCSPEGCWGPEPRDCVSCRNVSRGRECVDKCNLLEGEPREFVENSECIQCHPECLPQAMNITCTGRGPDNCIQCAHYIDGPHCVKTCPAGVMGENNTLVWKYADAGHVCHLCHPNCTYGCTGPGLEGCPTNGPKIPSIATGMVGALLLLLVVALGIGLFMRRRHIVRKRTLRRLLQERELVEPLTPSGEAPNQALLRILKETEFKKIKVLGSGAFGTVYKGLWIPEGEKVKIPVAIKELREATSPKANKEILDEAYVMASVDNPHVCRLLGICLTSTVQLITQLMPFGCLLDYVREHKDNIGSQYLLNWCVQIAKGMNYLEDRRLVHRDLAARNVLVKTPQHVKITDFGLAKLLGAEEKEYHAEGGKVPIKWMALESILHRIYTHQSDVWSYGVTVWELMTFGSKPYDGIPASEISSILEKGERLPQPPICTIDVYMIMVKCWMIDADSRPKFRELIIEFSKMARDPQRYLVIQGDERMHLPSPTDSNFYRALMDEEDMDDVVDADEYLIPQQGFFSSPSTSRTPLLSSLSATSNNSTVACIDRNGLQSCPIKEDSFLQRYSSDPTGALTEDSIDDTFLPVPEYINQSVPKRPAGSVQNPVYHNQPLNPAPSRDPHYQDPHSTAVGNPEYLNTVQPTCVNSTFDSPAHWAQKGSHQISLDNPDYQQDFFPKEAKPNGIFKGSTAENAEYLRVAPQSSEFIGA
Chain of Tyrosine-protein kinase JAK1 (Homo sapiens) (P23458 whole entry, the tested form may be a part): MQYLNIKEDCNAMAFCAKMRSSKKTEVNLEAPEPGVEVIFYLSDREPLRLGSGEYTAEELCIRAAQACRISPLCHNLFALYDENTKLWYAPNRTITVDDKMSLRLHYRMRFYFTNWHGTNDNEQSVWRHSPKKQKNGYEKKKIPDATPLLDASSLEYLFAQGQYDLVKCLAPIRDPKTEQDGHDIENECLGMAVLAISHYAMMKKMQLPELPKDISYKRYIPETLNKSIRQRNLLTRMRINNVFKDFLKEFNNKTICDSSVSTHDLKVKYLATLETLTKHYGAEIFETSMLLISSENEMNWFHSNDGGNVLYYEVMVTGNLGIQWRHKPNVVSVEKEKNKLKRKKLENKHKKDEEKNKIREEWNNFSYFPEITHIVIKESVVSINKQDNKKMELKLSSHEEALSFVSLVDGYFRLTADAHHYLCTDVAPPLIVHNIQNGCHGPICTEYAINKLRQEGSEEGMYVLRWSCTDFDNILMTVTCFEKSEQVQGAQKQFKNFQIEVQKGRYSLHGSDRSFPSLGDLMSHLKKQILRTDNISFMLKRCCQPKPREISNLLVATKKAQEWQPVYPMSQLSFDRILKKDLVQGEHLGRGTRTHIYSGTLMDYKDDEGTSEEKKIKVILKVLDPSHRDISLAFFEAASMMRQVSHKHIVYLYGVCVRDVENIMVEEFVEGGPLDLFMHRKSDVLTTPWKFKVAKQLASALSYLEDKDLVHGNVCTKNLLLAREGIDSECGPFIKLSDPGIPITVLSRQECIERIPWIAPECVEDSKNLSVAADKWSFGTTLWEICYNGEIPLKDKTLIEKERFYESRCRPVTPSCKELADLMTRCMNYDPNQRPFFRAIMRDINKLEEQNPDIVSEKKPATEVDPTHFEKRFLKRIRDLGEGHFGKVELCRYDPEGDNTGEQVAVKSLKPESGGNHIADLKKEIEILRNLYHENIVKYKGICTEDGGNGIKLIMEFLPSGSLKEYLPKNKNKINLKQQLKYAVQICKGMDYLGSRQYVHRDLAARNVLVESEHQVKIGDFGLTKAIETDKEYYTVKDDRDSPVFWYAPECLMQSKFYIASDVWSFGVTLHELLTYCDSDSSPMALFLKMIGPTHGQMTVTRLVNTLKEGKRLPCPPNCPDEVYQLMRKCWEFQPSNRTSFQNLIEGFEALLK
Chain of 5'-AMP-activated protein kinase catalytic subunit alpha-2 (Homo sapiens) (P54646 whole entry, looked up): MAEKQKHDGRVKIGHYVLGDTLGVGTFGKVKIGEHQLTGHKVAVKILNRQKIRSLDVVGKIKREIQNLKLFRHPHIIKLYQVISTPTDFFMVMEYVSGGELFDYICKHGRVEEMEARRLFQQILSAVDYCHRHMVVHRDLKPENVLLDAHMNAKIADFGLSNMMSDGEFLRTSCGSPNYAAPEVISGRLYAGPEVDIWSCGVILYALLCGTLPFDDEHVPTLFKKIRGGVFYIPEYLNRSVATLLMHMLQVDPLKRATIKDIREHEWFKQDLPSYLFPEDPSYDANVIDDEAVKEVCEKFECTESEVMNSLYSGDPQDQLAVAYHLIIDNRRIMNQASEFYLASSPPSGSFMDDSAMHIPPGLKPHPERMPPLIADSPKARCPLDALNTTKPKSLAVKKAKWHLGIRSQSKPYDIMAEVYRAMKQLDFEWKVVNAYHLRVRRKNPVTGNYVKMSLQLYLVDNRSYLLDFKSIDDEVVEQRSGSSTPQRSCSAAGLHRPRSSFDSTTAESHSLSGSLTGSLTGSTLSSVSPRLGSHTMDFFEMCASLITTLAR
Chain of Serine/threonine-protein kinase 10 (Homo sapiens) (O94804 whole entry, looked up, the tested form may be a part): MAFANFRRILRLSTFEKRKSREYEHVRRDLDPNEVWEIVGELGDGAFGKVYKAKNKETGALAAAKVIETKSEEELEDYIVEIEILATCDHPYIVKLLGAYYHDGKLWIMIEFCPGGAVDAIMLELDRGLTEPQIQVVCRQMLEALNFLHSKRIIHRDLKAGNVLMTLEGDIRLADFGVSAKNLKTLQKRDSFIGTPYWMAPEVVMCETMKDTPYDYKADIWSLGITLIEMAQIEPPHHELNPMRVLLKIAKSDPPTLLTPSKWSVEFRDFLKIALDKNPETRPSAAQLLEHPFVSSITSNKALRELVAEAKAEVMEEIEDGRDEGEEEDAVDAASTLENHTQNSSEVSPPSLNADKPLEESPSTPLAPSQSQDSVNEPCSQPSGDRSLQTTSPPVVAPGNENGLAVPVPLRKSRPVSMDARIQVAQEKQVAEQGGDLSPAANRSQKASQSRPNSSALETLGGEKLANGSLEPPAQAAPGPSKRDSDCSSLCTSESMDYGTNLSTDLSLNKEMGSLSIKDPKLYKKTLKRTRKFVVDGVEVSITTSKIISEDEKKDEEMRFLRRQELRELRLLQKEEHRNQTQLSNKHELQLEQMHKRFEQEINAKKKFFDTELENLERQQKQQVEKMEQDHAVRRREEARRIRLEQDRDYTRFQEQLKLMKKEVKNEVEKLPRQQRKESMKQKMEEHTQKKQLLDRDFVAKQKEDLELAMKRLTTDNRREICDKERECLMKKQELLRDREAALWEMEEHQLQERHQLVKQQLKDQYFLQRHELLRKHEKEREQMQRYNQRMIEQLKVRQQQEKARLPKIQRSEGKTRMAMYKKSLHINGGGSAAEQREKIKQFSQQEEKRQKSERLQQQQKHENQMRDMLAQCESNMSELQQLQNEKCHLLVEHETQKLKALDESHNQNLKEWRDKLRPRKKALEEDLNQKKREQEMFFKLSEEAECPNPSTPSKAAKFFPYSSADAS

With `CCN1CCN(Cc2ccc(NC(=O)c3ccc(C)c(/C=C/c4cnc5[nH]ccc5c4OC)c3)cc2C(F)(F)F)CC1` the inhibition [1] was 77.4%, the inhibition [2] was 76% and the inhibition [3] was 100%.

`CCN1CCN(Cc2ccc(NC(=O)c3ccc(C)c(Oc4ccnc5[nH]ccc45)c3)cc2C(F)(F)F)CC1` was tested, and the inhibition [4] was “inactive”, the inhibition [5] was “inactive” and the inhibition [6] was “inactive”.

Work on `CNc1cc(Oc2cc(C(=O)Nc3cc(N4CCN(C)CC4)cc(C(F)(F)F)c3)ccc2C)ncn1` yielded an inhibition [7] of -5.2% and an inhibition [8] of 0.6%.
